Results as given in PubChem BioAssay (NCI).
Where “and” joins values, the source holds several entries; their conditions need not be identical. Equal entries are not always repeated.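 In this assay, cells in 96-well plates receive the compound at five concentrations for 48 hours. Endpoints are linearly interpolated between the surrounding concentrations. Abbreviation: GI50, concentration required for 50% inhibition of growth. TGI: concentration producing complete growth inhibition.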

Legend:
Assay in all cases: growth of human tumour cells (NCI), 48 h
PC-3 prostate = tested on: PC-3 prostate
IGROV1 ovarian = tested on: IGROV1 ovarian
SNB-19 CNS = tested on: SNB-19 CNS
SK-MEL-28 melanoma = tested on: SK-MEL-28 melanoma
MOLT-4 leukemia = tested on: MOLT-4 leukemia
RPMI-8226 leukemia = tested on: RPMI-8226 leukemia
NCI/ADR-RES ovarian = tested on: NCI/ADR-RES ovarian
ACHN renal = tested on: ACHN renal
SNB-75 CNS = tested on: SNB-75 CNS
EKVX NSCLC = tested on: EKVX NSCLC

SMILES	TGI (PC-3 prostate) [µM]	GI50 (IGROV1 ovarian)	GI50 (SNB-19 CNS)	TGI (SNB-19 CNS)	GI50 (SK-MEL-28 melanoma) [µM]	TGI (SK-MEL-28 melanoma) [µM]	GI50 (MOLT-4 leukemia)	TGI (MOLT-4 leukemia)	GI50 (RPMI-8226 leukemia)	TGI (RPMI-8226 leukemia)	GI50 (NCI/ADR-RES ovarian)	TGI (NCI/ADR-RES ovarian)	GI50 (ACHN renal)	TGI (ACHN renal)	GI50 (SNB-75 CNS)	GI50 (EKVX NSCLC)	TGI (EKVX NSCLC)	GI50 (PC-3 prostate) [µM]	TGI (IGROV1 ovarian) [µM]	TGI (SNB-75 CNS) [µM]
C=CCN(/C=C1\C(=O)O[C@H](COC)[C@@]2(C)C1=C(O)C(=O)C1=C2[C@H](OC(C)=O)C[C@]2(C)C(=O)CC[C@@H]12)CC=C	> 100	0.145 µM and 0.206 µM	5.92 µM and 1.1 µM	20 µM and 92.9 µM	0.838	49.1	1.58 µM and 0.813 µM	20 µM and 17.1 µM	7.91 µM and 1.42 µM	20 µM and 14.1 µM	5.76 µM and 2.34 µM	20 µM and > 100 µM	2.74 µM and 0.449 µM	20 µM and > 100 µM	0.291 µM and 0.0327 µM	0.474 µM and 0.0779 µM	10.4 µM and 1.67 µM	–	–	–
COC(=O)[C@H](CC(C)C)NC(=O)NC(=O)NC(=O)CI	25.7	2.06 µM	18 µM	37.1 µM	5.64	19.1	2.1 µM	5.12 µM	2.92 µM	7.75 µM	25.5 µM	74.1 µM	1.78 µM	3.38 µM	11.9 µM	16.1 µM	29.8 µM	11.8	4.64	28.6
O=C(CCCc1ccccn1)c1ccccc1	> 100	–	–	> 100 µM	–	> 100	–	> 100 µM	–	> 100 µM	–	> 100 µM	–	> 100 µM	–	–	> 100 µM	–	> 100	> 100
CNC(C)C(=O)N[C@H](C(=O)N1CCC[C@@H]1CN(CCc1ccccc1)C(=O)C(F)(F)F)[C@H](C)OCC#CC#CCO[C@H](C)[C@H](NC(=O)[C@H](C)NC)C(=O)N1CCC[C@H]1CN(CCc1ccccc1)C(=O)C(F)(F)F (stereo not given in full)	3.23	2.13 µM	1.81 µM	3.43 µM	1.54	2.96	1.75 µM	4.1 µM	1.53 µM	3.52 µM	8.19 µM	27.3 µM	1.85 µM	3.44 µM	< 0.037 µM	1.63 µM	3.34 µM	1.72	4.38	0.764
CCOC(=O)C(=O)N=Nc1nc2c(O)c3ccccc3c(O)c2s1	27.1	–	–	28.9 µM	–	6.38	–	> 100 µM	–	> 19.9 µM	–	4.89 µM	–	6.74 µM	–	–	19.4 µM	–	14.6	9.02
COc1ccc(Cc2cnc(NC(=O)c3sc4ccccc4c3Cl)s2)cc1	> 100	0.608 µM	0.461 µM	> 100 µM	3.84	> 100	0.484 µM	> 100 µM	0.435 µM	> 42.7 µM	0.342 µM	> 100 µM	0.808 µM	> 100 µM	0.2 µM	0.48 µM	> 100 µM	0.405	> 100	> 100
c1ccc(-c2nn(-c3ccccc3)[n+](-c3cccc4ccccc34)n2)cc1	> 100	1.59 µM	2.01 µM	> 100 µM	2.36	13.9	1.3 µM	15.8 µM	0.472 µM	> 100 µM	> 100 µM	> 100 µM	12 µM	> 100 µM	1.94 µM	0.583 µM	33.3 µM	0.583	40.8	14.8
OC(COc1cccc2ccccc12)CN1CCN(c2ccccc2)CC1 (stereo not given)	29	14.6 µM	15.8 µM	30.7 µM	17	31.6	16.3 µM	56.3 µM	17 µM	42.9 µM	15.4 µM	30.4 µM	16.2 µM	30.6 µM	13.7 µM	15.4 µM	32.3 µM	12.5	29.5	27.2
O=C(c1cccs1)c1c(C(F)(F)F)n([O-])c2ccc(F)cc2[n+]1=O	2.33	0.279 µM	1.38 µM	2.86 µM	1.52	2.86	0.3 µM	1.02 µM	0.188 µM	0.485 µM	2.36 µM	6.33 µM	1.5 µM	2.82 µM	1.47 µM	1.69 µM	3.7 µM	0.961	1.49	2.82
CC(=O)OC[C@]12CC[C@@H]([C@@H](C)C(N)=O)[C@@H]1[C@H]1CC[C@@H]3[C@@]4(C)CC[C@H](OC(C)=O)C(C)(C)[C@@H]4CC[C@@]3(C)[C@]1(C)CC2	11.6	13.2 µM	11.9 µM	29.1 µM	12	27.3	3.29 µM	15.2 µM	2.63 µM	12.4 µM	7.74 µM	27.2 µM	5.78 µM	27.3 µM	5.59 µM	9.27 µM	22.5 µM	2.67	30	44.6
O=C1c2ccccc2-c2c1c1ccccc1c(=O)n2CCCN1CCN(CCCn2c3c(c4ccccc4c2=O)C(=O)c2ccccc2-3)CC1	> 100	> 35 µM	99.4 µM	> 100 µM	> 100	> 100	0.325 µM	21.9 µM	> 52.2 µM	> 100 µM	> 100 µM	> 100 µM	22.4 µM	> 100 µM	> 47.7 µM	> 100 µM	> 100 µM	> 100	> 100	> 84
COC(=O)c1ccc([N+](=O)[O-])c(O)c1	> 100	–	–	> 100 µM	–	> 100	–	> 100 µM	–	> 100 µM	–	> 100 µM	–	> 100 µM	–	–	> 100 µM	–	> 100	> 100
C=C1CCC2C3(C)COC(c4ccc(SC)cc4)OC3CCC2(C)C1C/C=C1/C(=O)OCC1O (stereo not given)	20.2	4.3 µM	16.8 µM	30.6 µM	8.67	21.1	3.43 µM	20.9 µM	2.64 µM	15.1 µM	2.78 µM	8.18 µM	6.25 µM	17.2 µM	10.1 µM	7.67 µM	26.9 µM	5.67	15.9	21.7
O=C(O)CCCCn1cnc2c(=S)nc[nH]c21	> 100	–	–	> 100 µM	–	> 100	–	> 100 µM	–	> 100 µM	–	> 100 µM	–	> 100 µM	–	–	> 100 µM	–	> 100	> 100
COc1ccc(C2=C(c3cc(OC)c(OC)c(OC)c3)C(=O)CC2)cc1	> 100	0.58 µM	0.41 µM	> 100 µM	0.489	> 100	0.405 µM	> 100 µM	0.255 µM	7 µM	0.0704 µM	> 100 µM	1.8 µM	> 100 µM	0.224 µM	0.699 µM	> 100 µM	0.203	> 100	> 100
Cc1nc(/N=C(\N)NC(=O)Nc2ccccc2Cl)sc1C	> 100	0.528 µM	0.462 µM	12.4 µM	0.916	> 100	0.492 µM	> 100 µM	0.406 µM	7.65 µM	0.271 µM	3.28 µM	0.638 µM	7.79 µM	0.226 µM	0.626 µM	> 100 µM	0.659	> 100	0.91
O=C(NNC(=O)c1ccncc1)c1ccncc1	> 100	–	–	> 100 µM	–	> 100	–	> 100 µM	–	> 100 µM	–	> 100 µM	–	> 100 µM	–	–	> 100 µM	–	> 100	> 100
CC1OC(OC2CC(O)C3(CO)C4C(O)CC5(C)C(C6=CC(=O)OC6)CCC5(O)C4CCC3(O)C2)C(O)C(O)C1O (stereo not given)	0.0437	< 0.0161 µM	0.0296 µM	0.177 µM	0.0646	0.251	< 0.0123 µM	1.78 µM	0.0167 µM	0.206 µM	< 0.0122 µM	< 0.0152 µM	0.01 µM	0.0191 µM	–	< 0.0107 µM	< 0.0142 µM	< 0.0144	0.384	0.099
O=S1(=O)CS(=O)(=O)OCCCO1	> 100	–	–	> 100 µM	–	> 100	–	> 100 µM	–	> 100 µM	–	> 100 µM	–	> 100 µM	–	–	> 100 µM	–	> 100	> 100
COc1ccc(/C=C\c2cc(OC)c(OC)c(OC)c2)cc1OC(=O)c1cccc(Cn2cc(CCOC(=O)c3cccc(Cn4nnc5c4C(=O)c4ccccc4C5=O)c3)nn2)c1	> 100	0.0252 µM	–	30.6 µM	11.7	> 75.7	0.0129 µM	> 100 µM	< 0.01 µM	> 100 µM	< 0.01 µM	0.421 µM	0.0153 µM	> 84.5 µM	< 0.01 µM	0.062 µM	> 100 µM	< 0.01	26.4	22.1
COc1c(CNC(=O)CCl)cc2[nH]c(C)cc2c1CNC(=O)CCl	33.9	3.49 µM	12.5 µM	91 µM	5.44	29.8	5.19 µM	83.8 µM	5.17 µM	52.8 µM	56.1 µM	> 100 µM	5.47 µM	31.6 µM	6.43 µM	11 µM	27.5 µM	12.2	> 100	33
